The record followed here is patent publication US7226945B2 (AstraZeneca AB, priority 2000, dated 2007).

Assay [1] deals with T1, ER-β (Homo sapiens, UniProt Q92731).
T1 construct: made in house; host or cells: cell-free: TNT T7 Quick-Coupled rabbit reticulocyte lysate (Promega L1170)
As to the kind of experiment: Estrogen receptor binding measurement (competition with [125I]-estradiol), ER-β; tables head the values "FP β-ER Ki". Here is the method:
(§1) Receptor protein was prepared by in vitro transcription and translation of these plasmids using the TNT T7 Quick-Coupled reticulocyte lysate system (Promega Cat.#L1170). […] Programmed lysate was then aliquotted and stored frozen at −80° C.
(§2) Compounds were tested in duplicate at half-log concentrations ranging from 10 pM to 3 μM. Compounds were prepared as 1 mM stocks in DMSO, then diluted in the binding-assay buffer (in mM: 20 HEPES, 150 NaCl, 1 EDTA, 6 monothioglycerol and 10 Na2MoO4,; 10% wt/vol glycerol, and pH=7.9) to a series of […] concentrated, 20 μL aliquots in a 96-well plate. Receptor aliquots were thawed on ice, and appropriately diluted (see below) in binding assay buffer. Diluted receptor (30 μL/each) was added to each well. […] Plates containing the final assay mixture were mixed on a shaker for 2 min and incubated overnight (˜16 h) at 4° C.
(§3) Receptor-bound and unbound radioligand was separated by filtration over sephadex columns. Columns (45 μL bed volume) were prepared by adding dry column media (Pharmacia Cat#G-25) to 96-well column templates (Millipore MultiScreen Plates Cat#MAHVN4510). Columns were then saturated with 300 μL of binding-assay buffer and stored at 4° C. Prior to use, stored columns were spun for 10 minutes at 2000 RPM, then washed twice with 200 μL of fresh binding buffer. The binding-assay mixtures (50 μL/each) were then applied to the columns, and an additional elution volume of 35 μL was immediately applied to the column. Receptor-bound radioligand was then eluted from the column by centrifugation for 10 minutes at 2000 RPM. A scintillation cocktail (145 μL) was added to the eluted radioligand/receptor complex, and radio-label was measured by liquid scintillation counting.
(§4) The volume of receptor-programmed reticulocyte lysate to be added to the binding assay was determined independently from two measurements made on each batch of receptor prepared. First, Kis were determined for standard compounds using a series of dilutions of the receptor preparation. Scatchard analysis of ligand binding affinity was performed at the receptor dilutions that produced reported Kis for these compounds and an acceptable signal:noise ratio (˜10).

In assay [2] the target is T2, ER-α (Homo sapiens, UniProt P03372).
T2 construct: made in house; host or cells: cell-free: TNT T7 Quick-Coupled rabbit reticulocyte lysate (Promega L1170)
T2 sequence (P03372 1-595): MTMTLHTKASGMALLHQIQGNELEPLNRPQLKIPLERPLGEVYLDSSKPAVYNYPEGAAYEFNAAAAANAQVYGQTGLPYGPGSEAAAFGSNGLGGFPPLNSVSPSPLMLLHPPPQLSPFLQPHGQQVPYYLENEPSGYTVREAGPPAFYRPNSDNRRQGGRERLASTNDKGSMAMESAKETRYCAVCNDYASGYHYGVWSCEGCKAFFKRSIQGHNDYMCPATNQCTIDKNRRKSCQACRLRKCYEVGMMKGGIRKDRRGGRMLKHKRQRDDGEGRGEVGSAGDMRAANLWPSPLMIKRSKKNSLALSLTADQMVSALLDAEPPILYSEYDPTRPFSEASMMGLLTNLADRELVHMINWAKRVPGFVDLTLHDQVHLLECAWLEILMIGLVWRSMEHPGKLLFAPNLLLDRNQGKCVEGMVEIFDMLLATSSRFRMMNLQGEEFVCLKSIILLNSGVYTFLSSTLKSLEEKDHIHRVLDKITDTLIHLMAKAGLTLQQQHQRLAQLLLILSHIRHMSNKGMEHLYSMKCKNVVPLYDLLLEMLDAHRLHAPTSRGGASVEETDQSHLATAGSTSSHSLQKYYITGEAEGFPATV
Put plainly: Estrogen receptor binding measurement (competition with [125I]-estradiol), ER-α; tables head the values "FP α-ER Ki". Here is the method: as §1, §2, §3, §4

The target of assay [3] is ER. As to the kind of experiment: Scatchard analysis of ligand binding affinity on receptor preparations. The following applies: Scatchard analysis at chosen receptor dilutions; receptor subtype not specified; read-out: KD for [125I]-estradiol. Here is the method: as §4

As usually defined, the Ki is a measure of affinity in units of concentration, obtained from inhibition or displacement. Usually Kd stands for a measure of binding affinity in units of concentration.

Read-outs that look alike come from different tables or passages of the source.

T1 sequence (Q92731 54-530 limits assumed): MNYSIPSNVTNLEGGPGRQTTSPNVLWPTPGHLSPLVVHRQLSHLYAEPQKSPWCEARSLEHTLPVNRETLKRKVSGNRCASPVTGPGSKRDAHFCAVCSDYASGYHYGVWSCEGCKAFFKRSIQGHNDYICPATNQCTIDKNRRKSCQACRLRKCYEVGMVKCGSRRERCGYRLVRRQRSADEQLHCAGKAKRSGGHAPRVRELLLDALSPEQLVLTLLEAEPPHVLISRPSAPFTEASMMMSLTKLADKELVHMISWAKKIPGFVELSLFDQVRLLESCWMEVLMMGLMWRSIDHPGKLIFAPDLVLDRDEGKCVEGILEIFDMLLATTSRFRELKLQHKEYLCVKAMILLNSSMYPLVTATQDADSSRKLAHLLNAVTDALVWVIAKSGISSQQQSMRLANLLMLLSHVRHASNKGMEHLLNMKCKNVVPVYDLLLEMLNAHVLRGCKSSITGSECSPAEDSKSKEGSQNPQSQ

`O=c1c(-c2ccc(O)cc2Cl)coc2cc(O)cc(Cl)c12` [Example 2, 5-Chloro-3-(2-chloro-4-hydroxyphenyl)-7-hydroxy-4-oxo-4H-1-benzopyran]: the Selectivity in assay [1] (ER-α Ki / ER-β Ki) was found to be 19. Also, the values for the inhibition constant (Ki) in assay [1] (read-out: FP β-ER Ki) and in assay [2] (read-out: FP α-ER Ki) were 16 nM and 300 nM, respectively.

Turning to `O=c1c(-c2ccc(O)cc2)coc2cc(O)cc(Br)c12` [Example 5, 5-Bromo-7-hydroxy-3-(4-hydroxyphenyl)-4-oxo-4H-1-benzopyran], the Selectivity in assay [1] (ER-α Ki / ER-β Ki) turned out to be 90. Also, the figures for the Ki in assay [1] (read-out: FP β-ER Ki) and in assay [2] (read-out: FP α-ER Ki) were 2.8 nM and 251 nM, respectively.

For the compound `Cc1oc2cc(O)cc(Cl)c2c(=O)c1-c1ccc(O)cc1` [Example 11], in assay [1] (ER-α Ki / ER-β Ki), the “FP Sel. Ratio” value was 32.8. The inhibitory constant (Ki) in assay [1] (LOQ = 0.01 nM, upper limit 1000 nM, read-out: FP ER-β Ki) is 46.1 nM; in assay [2] (LOQ = 0.01 nM, upper limit 1000 nM, read-out: FP ER-α Ki), ≥ 1000 nM.

With `CSc1cc(O)cc2occ(-c3ccc(O)cc3)c(=O)c12` [Example 8, 7-Hydroxy-3-(4-hydroxyphenyl)-5-methylthio-4-oxo-4H-1-benzopyran], the Selectivity in assay [1] (ER-α Ki / ER-β Ki) is reported as 7. For the same compound, the Ki turned out to be 84 nM in assay [1] (read-out: FP β-ER Ki) and 563 nM in assay [2] (read-out: FP α-ER Ki).

In assay [1] (ER-α Ki / ER-β Ki), `Oc1ccc(C2COc3cc(O)cc(Cl)c3C2)cc1` (stereo not shown) [Example 10, 5-Chloro-7-hydroxy-3-(4 hydroxyphenyl)chroman] displayed a Selectivity of 6.4. The Ki stood at 2 nM in assay [1] (read-out: FP β-ER Ki) and 13 nM in assay [2] (read-out: FP α-ER Ki).

In turn, `Cc1cc(O)ccc1-c1coc2cc(O)cc(Cl)c2c1=O` [Example 3, 5-chloro-7-hydroxy-3-(4-hydroxy-2-methylphenyl)-4-oxo-4H-1-benzopyran] gave a Selectivity in assay [1] (ER-α Ki / ER-β Ki) of 18. Also, the figures for the Ki in assay [1] (read-out: FP β-ER Ki) and in assay [2] (read-out: FP α-ER Ki) were 50 nM and 900 nM, respectively.

On to `C[C@]12CC[C@@H]3c4ccc(O)cc4CC[C@H]3[C@@H]1C[C@@H](I)[C@@H]2O` [[^125I]-estradiol, [^125I]-16α-iodo-3,17β-estradiol], for which, in assay [3], the Kd fell in the range of 0.1 to 1 nM.

Turning to `O=c1c(-c2ccc(O)cc2)coc2cc(O)cc(F)c12` [Example 4, 5-Fluoro-7-hydroxy-3-(4-hydroxyphenyl)-4-oxo-4H-1-benzopyran], the Selectivity in assay [1] (ER-α Ki / ER-β Ki) is >56. The Ki in assay [1] (read-out: FP β-ER Ki) was 39 nM; in assay [2] (read-out: FP α-ER Ki), > 2200 nM.

In turn, `O=c1oc2cc(O)cc(Cl)c2cc1-c1ccc(O)cc1` [Example 9, 5-Chloro-7-hydroxy-3-(4-hydroxyphenyl)coumarin] yielded a Selectivity in assay [1] (ER-α Ki / ER-β Ki) of 35. Further, the Ki in assay [1] (read-out: FP β-ER Ki) is 1.8 nM; in assay [2] (read-out: FP α-ER Ki), 62 nM.

Turning to `N#Cc1cc(O)cc2occ(-c3ccc(O)cc3)c(=O)c12` [Example 7, 5-Cyano-7-hydroxy-3-(4-hydroxyphenyl)-4-oxo-4H-1-benzopyran], the Selectivity in assay [1] (ER-α Ki / ER-β Ki) was >39. Further, the inhibitory constant (Ki) in assay [1] (read-out: FP β-ER Ki) was 58 nM; in assay [2] (read-out: FP α-ER Ki) it was > 1000 nM.

Regarding `O=c1c(-c2ccc(O)cc2)coc2cc(O)cc(I)c12` [Example 6, 7-Hydroxy-3-(4-hydroxyphenyl)-5-iodo-4-oxo-4H-1-benzopyran], the Selectivity in assay [1] (ER-α Ki / ER-β Ki) amounted to 38. Besides, the values for the Ki in assay [1] (read-out: FP β-ER Ki) and in assay [2] (read-out: FP α-ER Ki) were 3.9 nM and 147 nM, respectively.

`O=c1c(-c2ccc(O)cc2)coc2cc(O)cc(Cl)c12` [Example 1, 5-Chloro-7-hydroxy-3-(4-hydroxyphenyl)-4-oxo-4H-1 benzopyran] displayed a Selectivity in assay [1] (ER-α Ki / ER-β Ki) of 139. Moreover, the values for the inhibition constant Ki in assay [1] (read-out: FP β-ER Ki) and in assay [2] (read-out: FP α-ER Ki) were 4.3 nM and 600 nM, respectively.
